# Reference: patent publication US9783509B2, “Six-membered C-N-linked aryl sulfide derivatives and aryl sulfoxide derivatives as pest conrol agents” (BAYER CROPSCIENCE AKTIENGESELLSCHAFT, priority 2013, dated 2017)
# Read-outs that look alike come from different tables or passages of the source.
# Key:
# [1] = tested on: southern root-knot nematode (Meloidogyne incognita); experiment: Meloidogyne incognita test (soil drench, lettuce, 21 days); type: in vivo; conditions: application rate 8 ppm, after 21 days
# Experimental: Meloidogyne incognita Test
# (§1) Solvent: 7 parts by weight of dimethylformamide
# Emulsifier: 2.5 parts by weight of alkylaryl polyglycol ether
# To produce an appropriate active ingredient formulation, 1 part by weight of active ingredient is mixed with the stated amounts of solvent and emulsifier, and the concentrate is diluted with water to the desired concentration, it being necessary to include the volume of soil which is drenched in the calculation. It should be noted that a concentration of 20 ppm of emulsifier in the soil is not exceeded. To produce further test concentrations, water is used for dilution.
# Pots filled with soil (loamy sand) are watered with the active ingredient solution. An egg/larvae suspension of the southern root-knot nematode (Meloidogyne incognita) is added, lettuce seeds are scattered over the surface of the soil, and they are covered over with quartz sand. The lettuce seeds germinate and the plants develop. The galls develop on the roots
# After 21 days, the nematicidal efficacy in % is determined by the formation of galls. 100% means that no galls have been found; 0% means that the number of galls on the treated plants corresponds to the untreated control.
# [2] = tested on: greenhouse red spider mite (Tetranychus urticae); experiment: Tetranychus urticae spray test, OP-resistant (bean plants); type: in vivo; conditions: application rate 20 ppm, after 7 days
# Experimental: Tetranychus urticae—Spray Test, OP-Resistant
# as §1
# (§2) Emulsifier: alkylaryl polyglycol ether
# (§3) To produce an appropriate active ingredient formulation, 1 part by weight of active ingredient is dissolved using the specified parts by weight of solvent and made up with water containing an emulsifier concentration of 1000 ppm until the desired concentration is attained. To produce further test concentrations, the preparation is diluted with emulsifier-containing water. If the addition of ammonium salts or/and penetrants is required, these are each added in a concentration of 1000 ppm to the formulation solution.
# Bean plants (Phaseolus vulgaris) heavily infested by all stages of the greenhouse red spider mite (Tetranychus urticae) are treated by spraying with the active ingredient formulation in the desired concentration.
# After 7 days, the efficacy in % is determined. 100% means that all the spider mites have been killed; 0% means that none of the spider mites have been killed.
# [3] = log P by reversed-phase HPLC analogously to OECD Guideline 117; type: physicochemical; conditions: for LogP[a] / chromatographic logP: [a] acidic range; for LogP[b]: [b] neutral range, pH 7.8, ammonium hydrogencarbonate/acetonitrile; for chromatographic logP: reversed-phase C18 HPLC column
# Method in brief: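 Retention on reversed-phase C18 HPLC (LC-MS), acidic runs at pH 2.7 with formic acid or trifluoroacetic acid/acetonitrile gradients, neutral runs at pH 7.8 with 0.001 molar ammonium hydrogencarbonate/acetonitrile. log P obtained by linear interpolation of retention times against unbranched alkan-2-ones (C3–C16) of known log P.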
# [4] = tested on: engorged adult female cattle ticks (Boophilus microplus); experiment: Boophilus microplus injection test; type: in vivo; conditions: application rate 20 μg/animal, assessed after 7 days
# Experimental: Boophilus microplus—Injection Test
# Solvent: dimethyl sulphoxide
# To produce an appropriate active ingredient formulation, 10 mg of active ingredient are mixed with 0.5 ml of solvent and the concentrate is diluted with solvent to the desired concentration.
# 1 μl of the active ingredient solution is injected into the abdomen of 5 engorged adult female cattle ticks (Boophilus microplus). The animals are transferred into dishes and kept in a climate-controlled room.
# The efficacy is assessed after 7 days by laying of fertile eggs. Eggs which are not visibly fertile are stored in a climate-controlled cabinet until the larvae hatch after about 42 days. An efficacy of 100% means that none of the ticks has laid any fertile eggs; 0% means that all the eggs are fertile.
# [5] = tested on: southern root-knot nematode (Meloidogyne incognita); experiment: Meloidogyne incognita test (sand, lettuce, acetone solvent, 14 days); type: in vivo; conditions: Meloidogyne incognita, 336 h; application rate 20 ppm, after 14 days; read-out: nematicidal efficacy (formation of galls)
# Method in brief: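 Active ingredient in acetone diluted with water, added to sand with nematode egg/larvae suspension and lettuce seeds. Efficacy scored after 14 days from root gall formation (100% = no galls; 0% = as untreated control).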
# [6] = tested on: adult cat fleas (Ctenocephalides felis); experiment: Ctenocephalides felis in vitro contact test with adult cat fleas; type: in vivo; conditions: application rate 5 μg/cm^2 (=500 g/ha), after 48 h
# Experimental: Ctenocephalides felis—In Vitro Contact Tests with Adult Cat Fleas
# For the coating of the test tubes, 9 mg of active ingredient are first dissolved in 1 ml of acetone p.a. and then diluted to the desired concentration with acetone p.a. 250 μl of the solution are distributed homogeneously on the inner walls and base of a 25 ml test tube by turning and rocking on an orbital shaker (rocking rotation at 30 rpm for 2 h). With 900 ppm active ingredient solution and internal surface 44.7 cm^2, given homogeneous distribution, an area-based dose of 5 μg/cm^2 is achieved.
# After the solvent has been evaporated off, the tubes are populated with 5-10 adult cat fleas (Ctenocephalides felis), sealed with a perforated plastic lid and incubated in a horizontal position at room temperature and ambient humidity. After 48 h, the efficacy is determined. To this end, the test tubes are stood upright and the fleas are knocked to the base of the tube. Fleas which remain motionless at the base or move in an uncoordinated manner are considered to be dead or moribund.
# 100% efficacy means that all the fleas were dead or moribund. 0% efficacy means that no fleas were harmed.
# [7] = tested on: greenhouse red spider mite (Tetranychus urticae); experiment: Tetranychus urticae spray test, OP-resistant (bean leaf discs); type: in vivo; conditions: after 6 days
# Method in brief: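 Compound dissolved in acetone/DMF and diluted in water with 1000 ppm alkylaryl polyglycol ether emulsifier, then sprayed on bean leaf discs infested with all stages of OP-resistant T. urticae. Mortality in % scored after 6 days (100% = all mites killed).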
# [8] = tested on: green peach aphid (Myzus persicae); experiment: Myzus persicae spray test (bell pepper plants); type: in vivo; conditions: application rate 20 ppm, after 6 days
# Experimental: Myzus persicae—Spray Test
# as §1, §2, §3
# Bell pepper plants (Capsicum annuum) heavily infested by the green peach aphid (Myzus persicae) are treated by spraying with the active ingredient formulation in the desired concentration.
# After 6 days, the kill in % is determined. 100% means that all the aphids have been killed; 0% means that no aphids have been killed.
# [9] = pH 2.7, formic acid (or trifluoroacetic acid)/acetonitrile
Structure (SMILES),nematicidal efficacy (formation of galls) [1] [%],efficacy (spider mites killed) [2] [%],"LogP[a] [3, 9]",LogP[b] [3],efficacy (no fertile eggs laid) [4] [%],pest or weed control at 20 ppm [5] [%],"chromatographic logP ([3]; pH 2.7, running text, pH 2.7, read-out: log P[a])","chromatographic logP ([3]; pH 2.7, table column, pH 2.7, formic acid (or trifluoroacetic acid)/acetonitrile, read-out: LogP[a])",efficacy (fleas dead or moribund) [6] [%],"pest or weed control at 500 g/ha ([7]; Tetranychus urticae, foliar, 144 h, application rate 500 g/ha, read-out: efficacy (spider mites killed)) [%]",efficacy (kill of aphids) [8] [%],efficacy (spider mites killed) ([7]; application rate 100 g/ha) [%]
"Cc1cc(F)c(-n2ncc(=O)n(CC(F)(F)F)c2=O)cc1[S+]([O-])CC(F)(F)F (single isomer, unassigned) [compound 50]",99,100,2.62,2.57,,,,,,,,
"Cc1cc(F)c(-n2ncc(=O)n(C)c2=O)cc1[S+]([O-])CC(F)(F)F (single isomer, unassigned; (+)) [Ex. No. 29, (+)-2-[2-fluoro-4-methyl-5-(2,2,2-trifluoroethylsulphinyl)phenyl]-4-methyl-1,2,4-triazine-3,5-dione]",100,100,1.95,1.9,100,,,,,,,
"Cc1cc(F)c(-n2ncc(=O)n(C)c2=O)cc1[S+]([O-])CC(F)(F)F (stereo not shown) [Ex. No. 2, 2-{2-Fluoro-4-methyl-5-[(2,2,2-trifluoroethyl)sulphinyl]phenyl}-4-methyl-1,2,4-triazine-3,5(2H,4H)-dione]",,,,,100,90,1.94,1.94,100,90,,
Cn1c(=O)cnn(-c2ccc(Cl)c(SCC(F)(F)F)c2)c1=O [compound 31],,,3,2.91,,,,,,,97,100
